Test results published in US4069382A, “9-(5-O-Acyl-β-D-arabinofuranosyl)adenine compounds” (Parke, Davis & Company, priority 1976, dated 1978).
Converted amounts (≈) assume the structure as drawn.

Assay: water solubility
Assay type: physicochemical
Details: ph 7 buffer, pH 7
`CCCC(=O)OC[C@H]1O[C@@H](n2cnc3c(N)ncnc32)[C@@H](O)[C@@H]1O` [Example 3, 9-(5-O-butyryl-β-D-arabinofuranosyl)adenine] showed a water solubility of 16.1 mg/mL (≈ 47.7 mM).

Same assay, conditions: ph 7 buffer, pH 7, aqueous buffer
With `CC(=O)OC[C@H]1O[C@@H](n2cnc3c(N)ncnc32)[C@@H](O)[C@@H]1O` [Example 1, 9-(5-O-acetyl-β-D-arabinofuranosyl)adenine] the solubility was 9900 µg/mL (≈ 32 mM).
`CCC(=O)OC[C@H]1O[C@@H](n2cnc3c(N)ncnc32)[C@@H](O)[C@@H]1O` [Example 2, 9-(5-O-propionyl-β-D-arabinofuranosyl)adenine] showed a solubility of 9200 µg/mL (≈ 28.5 mM).
For `CCCCC(=O)OC[C@H]1O[C@@H](n2cnc3c(N)ncnc32)[C@@H](O)[C@@H]1O` [Example 4], the solubility was 8400 µg/mL (≈ 23.9 mM).
For `CC(C)CC(=O)OC[C@H]1O[C@@H](n2cnc3c(N)ncnc32)[C@@H](O)[C@@H]1O` [Example 5, 9-[5-O-(3-methylbutyryl)-β-D-arabinofuranosyl]-adenine], the solubility was 16400 µg/mL (≈ 46.7 mM).
For `CC(C)(C)C(=O)OC[C@H]1O[C@@H](n2cnc3c(N)ncnc32)[C@@H](O)[C@@H]1O` [Example 6, 9-[5-O-(2,2-dimethylpropionyl)-β-D-arabinofuranosyl]-adenine], the solubility was 7000 µg/mL (≈ 19.9 mM).
`CCCCCC(=O)OC[C@H]1O[C@@H](n2cnc3c(N)ncnc32)[C@@H](O)[C@@H]1O` [Example 7, 9-(5-O-hexanoyl-β-D-arabinofuranosyl)adenine] showed a solubility of 2500 µg/mL (≈ 6.84 mM).
